Assay results: publication PMC5397615, “Rapid Identification and Isolation of Inhibitors of Rat Lens Aldose Reductase and Antioxidant in Maackia amurensis” (BioMed Research International, 2017)

How the values were obtained:
[1] = target: T1, rat lens aldose reductase (RLAR) (Rattus norvegicus, UniProt P07943); test: Rat lens AR inhibitory activity assay; format: biochemical; settings: isolated compounds; for IC50: read-out: RLAR inhibition IC50
T1 construct: Rat lens (RL) homogenate was prepared according to the modified method of Hayman and Kinoshita; from tissue; host or cells: lens of male Sprague-Dawley rats (homogenate supernatant, partially purified)

rat lens AR = target: T2, rat lens AR (Rattus norvegicus, UniProt P07943); test: HPLC microfractionation rat lens AR assay; format: biochemical; parameters: concentration or dose not given beside the values; settings: amount of efficacy in HPLC microfractionation (Table 3)
T2 construct: Rat lens (RL) homogenate was prepared according to the modified method of Hayman and Kinoshita; from tissue; host or cells: lens of male Sprague-Dawley rats (homogenate supernatant, partially purified)

[2] = ABTS radical scavenging activity (TEAC assay); settings: for IC50: read-out: Antioxidant IC50
[3] = ABTS-offline HPLC assay of the EtOAc fraction; settings: 254 nm; for Peak area change after ABTS (in words): EtOAc fraction spiked with ABTS solution, Figure 1(a); for Antioxidant quantitative reduction (%): amount of peak decrease in ABTS-offline HPLC
[4] = Partition coefficient (K) in two-phase HSCCC solvent systems; format: physicochemical
[5] = n-Hexane-ethyl acetate-methanol-water 2.5 : 7.5 : 5 : 5 (v/v)
[6] = n-Hexane-ethyl acetate-methanol-water 3 : 7 : 4.5 : 5.5 (v/v)
[7] = n-Hexane-ethyl acetate-methanol-water 4 : 6 : 2.5 : 7.5 (v/v)
[8] = n-Hexane-ethyl acetate-methanol-water 4 : 6 : 3.5 : 5.5 (v/v)

Question: Which IC50 [1] does the source give for `O=C(/C=C/c1ccc(O)c(O)c1)O[C@@H]1C[C@](O)(C(=O)O)C[C@@H](O)[C@H]1O` [Compound 1, chlorogenic acid] here?
Answer: 4.2 ± 3.2 µM

Question: What about the “RLAR inhibition, Inhibition (%)” value (rat lens AR) of the same compound?
Answer: 51.02%

Question: Which IC50 ([2]; isolated compounds) does the source give for `COc1cc(/C=C/C(=O)O)ccc1O` [Compound 3, trans-ferulic acid] here?
Answer: 13.51 ± 0.04 µM

Question: What about the “RLAR activity (in words)” value [1] of the same compound?
Answer: did not have RLAR activity

Question: What about the IC50 [1] of the same compound?
Answer: > 500 µM

Question: What about the “RLAR inhibition, Inhibition (%)” value (rat lens AR) of the same compound?
Answer: 5.21%

Question: And the “Peak area change after ABTS (in words)” value [3]?
Answer: peak area reductions

Question: What about the “Antioxidant quantitative reduction (%)” value [3] of the same compound?
Answer: 20.06%

Question: Which “Antioxidant activity (in words)” value ([2]; isolated compounds) does the source give for `COc1c(O[C@@H]2O[C@H](CO)[C@@H](O)[C@H](O)[C@H]2O)cc2occ(-c3ccc(O)cc3)c(=O)c2c1O` [Compound 4, tectoridin] here?
Answer: did not have antioxidant activity

Question: What about the IC50 ([2]; isolated compounds) of the same compound?
Answer: > 500 µM

Question: And the IC50 [1]?
Answer: 50.4 ± 2.17 µM

Question: What about the “RLAR inhibition, Inhibition (%)” value (rat lens AR) of the same compound?
Answer: 43.37%

Question: What about the “Peak area change after ABTS (in words)” value [3] of the same compound?
Answer: slightly decreased

Question: And the “Antioxidant quantitative reduction (%)” value [3]?
Answer: 8.43%

Question: For `Oc1cc(O)cc(/C=C/c2ccc(O)c(O)c2)c1` [Compound 5, piceatannol], which K values [4, 5] is on record?
Answer: 0.37

Question: And the K values [4, 6]?
Answer: 0.34

Question: And the K values [4, 7]?
Answer: 3.91

Question: And the K values [4, 8]?
Answer: 0.37

Question: And the IC50 ([2]; isolated compounds)?
Answer: 6.73 ± 0.04 µM

Question: And the “RLAR activity (in words)” value [1]?
Answer: did not have RLAR activity

Question: What about the IC50 [1] of the same compound?
Answer: > 500 µM

Question: What about the “Peak area change after ABTS (in words)” value [3] of the same compound?
Answer: peak area reductions

Question: What about the “Antioxidant quantitative reduction (%)” value [3] of the same compound?
Answer: 34.68%

Question: Which K values ([4]; n-Heptane-ethyl acetate-methanol-water 1 : 6 : 1 : 6 (v/v)) does the source give for `Oc1ccc(/C=C/c2cc(O)cc(O)c2)cc1` [Compound 6, resveratrol] here?
Answer: 9.56

Question: And the K values [4, 5]?
Answer: 0.57

Question: What about the K values [4, 6] of the same compound?
Answer: 0.59

Question: And the K values [4, 7]?
Answer: 4.62

Question: And the K values [4, 8]?
Answer: 0.90

Question: What about the IC50 ([2]; isolated compounds) of the same compound?
Answer: 11.05 ± 0.04 µM

Question: And the IC50 [1]?
Answer: 118 ± 3.12 µM

Question: What about the “RLAR inhibition, Inhibition (%)” value (rat lens AR) of the same compound?
Answer: 29.31%

Question: For `O=c1c(-c2ccc(O)cc2)coc2cc(O)ccc12` [Compound 7, daidzein], which IC50 ([2]; isolated compounds) is on record?
Answer: > 500 µM

Question: What about the IC50 [1] of the same compound?
Answer: 152 ± 2.91 µM

Question: And the “RLAR inhibition, Inhibition (%)” value (rat lens AR)?
Answer: 28.14%

Question: And the “Antioxidant quantitative reduction (%)” value [3]?
Answer: 0.48%

Question: Which results are given for `O=c1c(-c2ccc(O)cc2)coc2cc(O)cc(O)c12` [Compound 8, genistein]?
Answer: K values ([4]; n-Hexane-ethyl acetate-methanol-water 1 : 3 : 1 : 3 (v/v)): 35.34; K values [4, 5]: 2.04; K values [4, 6]: 2.52; K values [4, 7]: 15.01; K values [4, 8]: 3.73; IC50 ([2]; isolated compounds): > 500 µM; IC50 [1]: 57.1 ± 3.23 µM; RLAR inhibition, Inhibition (%) (rat lens AR): 38.54%; Antioxidant quantitative reduction (%) [3]: 2.24%

Question: Which results are given for `COc1ccc(-c2coc3cc(O)ccc3c2=O)cc1` [Compound 9, formononetin]?
Answer: K values [4, 5]: 0.33; K values [4, 6]: 0.40; K values [4, 7]: 3.39; K values [4, 8]: 0.39; IC50 ([2]; isolated compounds): > 500 µM; IC50 [1]: 69.2 ± 2.57 µM; RLAR inhibition, Inhibition (%) (rat lens AR): 30.11%; Antioxidant quantitative reduction (%) [3]: 0.69%

Question: Which results are given for `Cc1c(C)c2c(c(C)c1O)CCC(C)(C(=O)O)O2` (stereo not drawn) [Trolox, 6-hydroxy-2,5,7,8-tetrame-thylchroman-2-carboxylic acid, reference compound]?
Answer: Antioxidant IC50 ([2]; concentration of 50% inhibition): 8.72 ± 0.01 µg/mL; Antioxidant TEAC (Trolox equivalent antioxidant capacity) ([2]; relative to Trolox = 1.00): 1.00
